Read-outs that look alike come from different tables or passages of the source.
How the values were obtained:
[1] = biological target: T1, DAPK1 (Homo sapiens, UniProt P53355); assay: Kinase panel assay (radiolabelled); assay type: biochemical; conditions: ATP 10 μM
T1 construct: purchased Reaction Biology Corp

[2] = biological target: T2, EIF2AK3 (Homo sapiens, UniProt Q9NZJ5); assay: Kinase panel assay (radiolabelled); assay type: biochemical; conditions: 30 μM compound, ATP 10 μM, duplicates Data 1/Data 2
T2 construct: purchased Reaction Biology Corp
T2 sequence (Q9NZJ5 30-1116): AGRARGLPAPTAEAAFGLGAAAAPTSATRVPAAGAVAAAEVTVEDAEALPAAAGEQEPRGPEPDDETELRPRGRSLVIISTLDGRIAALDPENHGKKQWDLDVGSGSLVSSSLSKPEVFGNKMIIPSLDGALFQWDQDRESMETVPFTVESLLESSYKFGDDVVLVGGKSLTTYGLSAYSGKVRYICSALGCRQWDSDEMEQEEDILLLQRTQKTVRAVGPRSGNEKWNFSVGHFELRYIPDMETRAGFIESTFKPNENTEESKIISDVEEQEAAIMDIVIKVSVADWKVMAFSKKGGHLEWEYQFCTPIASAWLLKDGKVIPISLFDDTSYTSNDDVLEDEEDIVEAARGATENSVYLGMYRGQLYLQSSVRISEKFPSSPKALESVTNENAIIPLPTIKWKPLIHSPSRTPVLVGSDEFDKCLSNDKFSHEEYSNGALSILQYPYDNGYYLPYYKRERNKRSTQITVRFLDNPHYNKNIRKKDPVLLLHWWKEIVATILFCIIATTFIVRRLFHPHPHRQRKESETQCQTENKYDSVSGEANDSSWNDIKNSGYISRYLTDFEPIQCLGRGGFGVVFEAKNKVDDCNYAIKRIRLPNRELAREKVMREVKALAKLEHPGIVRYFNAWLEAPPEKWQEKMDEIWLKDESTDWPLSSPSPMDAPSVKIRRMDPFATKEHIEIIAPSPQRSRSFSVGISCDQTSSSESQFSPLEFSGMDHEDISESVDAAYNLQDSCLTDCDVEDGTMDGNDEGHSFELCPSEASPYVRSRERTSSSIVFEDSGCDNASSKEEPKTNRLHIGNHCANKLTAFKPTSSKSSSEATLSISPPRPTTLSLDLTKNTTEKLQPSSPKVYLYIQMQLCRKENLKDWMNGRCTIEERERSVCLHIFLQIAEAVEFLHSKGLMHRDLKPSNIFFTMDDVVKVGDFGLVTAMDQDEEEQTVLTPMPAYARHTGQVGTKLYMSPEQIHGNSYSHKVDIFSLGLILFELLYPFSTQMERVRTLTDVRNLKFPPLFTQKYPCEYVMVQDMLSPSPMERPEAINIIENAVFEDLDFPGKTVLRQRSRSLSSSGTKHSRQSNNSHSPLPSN

[3] = biological target: T3, EIF2AK4 (Homo sapiens, UniProt Q9P2K8); assay: Kinase panel assay (radiolabelled); assay type: biochemical; conditions: 30 μM compound, ATP 10 μM, duplicates Data 1/Data 2
T3 construct: purchased Reaction Biology Corp

[4] = biological target: T4, JNK3 (Homo sapiens, UniProt P53779); assay: Kinase panel assay (radiolabelled); assay type: biochemical; conditions: ATP 10 μM
T4 construct: purchased Reaction Biology Corp
T4 sequence (P53779 whole entry): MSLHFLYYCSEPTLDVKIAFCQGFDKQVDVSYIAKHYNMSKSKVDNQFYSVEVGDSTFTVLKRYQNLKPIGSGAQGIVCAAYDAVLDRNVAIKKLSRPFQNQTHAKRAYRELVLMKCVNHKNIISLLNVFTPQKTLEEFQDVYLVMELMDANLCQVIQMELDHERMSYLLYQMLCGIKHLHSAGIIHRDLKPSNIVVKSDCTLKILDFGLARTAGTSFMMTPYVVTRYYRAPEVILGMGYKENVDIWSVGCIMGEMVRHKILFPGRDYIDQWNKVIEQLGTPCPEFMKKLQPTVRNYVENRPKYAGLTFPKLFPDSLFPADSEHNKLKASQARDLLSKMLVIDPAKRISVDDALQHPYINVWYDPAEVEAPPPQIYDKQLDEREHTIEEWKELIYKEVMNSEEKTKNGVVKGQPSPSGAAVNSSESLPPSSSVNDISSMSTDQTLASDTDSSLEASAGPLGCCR

[5] = biological target: T5, TLK1 (Homo sapiens, UniProt Q9UKI8); assay: Kinase panel assay (radiolabelled); assay type: biochemical; conditions: ATP 10 μM
T5 construct: purchased Reaction Biology Corp
T5 sequence (Q9UKI8 1-766): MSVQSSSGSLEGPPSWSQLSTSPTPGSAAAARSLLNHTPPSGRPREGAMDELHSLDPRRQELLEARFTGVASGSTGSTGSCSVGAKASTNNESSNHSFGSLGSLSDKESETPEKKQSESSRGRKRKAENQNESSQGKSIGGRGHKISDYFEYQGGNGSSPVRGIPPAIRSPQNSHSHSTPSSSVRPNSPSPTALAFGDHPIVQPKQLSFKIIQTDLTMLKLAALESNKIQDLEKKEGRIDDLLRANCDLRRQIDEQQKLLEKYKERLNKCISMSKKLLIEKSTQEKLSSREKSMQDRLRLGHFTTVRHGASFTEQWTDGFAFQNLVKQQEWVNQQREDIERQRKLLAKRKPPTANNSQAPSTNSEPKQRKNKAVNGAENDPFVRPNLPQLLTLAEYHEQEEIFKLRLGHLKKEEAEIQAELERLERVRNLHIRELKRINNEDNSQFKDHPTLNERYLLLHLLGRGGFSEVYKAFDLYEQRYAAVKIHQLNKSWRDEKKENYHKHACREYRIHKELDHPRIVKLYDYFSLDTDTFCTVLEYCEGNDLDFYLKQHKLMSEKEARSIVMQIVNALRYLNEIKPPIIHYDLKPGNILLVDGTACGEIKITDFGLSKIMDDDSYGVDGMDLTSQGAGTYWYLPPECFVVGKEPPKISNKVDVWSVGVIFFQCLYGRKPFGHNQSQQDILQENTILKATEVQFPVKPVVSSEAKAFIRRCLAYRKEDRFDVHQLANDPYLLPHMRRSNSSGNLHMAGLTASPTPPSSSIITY

[6] = biological target: T6, TRKA (G595R) (Homo sapiens, UniProt P04629, G595R); assay: Kinase panel assay (radiolabelled); assay type: biochemical; conditions: 30 μM compound, ATP 10 μM, duplicates Data 1/Data 2
T6 construct: purchased Reaction Biology Corp

[7] = biological target: T7, TRKB (Homo sapiens, UniProt Q16620); assay: Kinase panel assay (radiolabelled); assay type: biochemical; conditions: ATP 10 μM
T7 construct: purchased Reaction Biology Corp
T7 sequence (Q16620 32-822): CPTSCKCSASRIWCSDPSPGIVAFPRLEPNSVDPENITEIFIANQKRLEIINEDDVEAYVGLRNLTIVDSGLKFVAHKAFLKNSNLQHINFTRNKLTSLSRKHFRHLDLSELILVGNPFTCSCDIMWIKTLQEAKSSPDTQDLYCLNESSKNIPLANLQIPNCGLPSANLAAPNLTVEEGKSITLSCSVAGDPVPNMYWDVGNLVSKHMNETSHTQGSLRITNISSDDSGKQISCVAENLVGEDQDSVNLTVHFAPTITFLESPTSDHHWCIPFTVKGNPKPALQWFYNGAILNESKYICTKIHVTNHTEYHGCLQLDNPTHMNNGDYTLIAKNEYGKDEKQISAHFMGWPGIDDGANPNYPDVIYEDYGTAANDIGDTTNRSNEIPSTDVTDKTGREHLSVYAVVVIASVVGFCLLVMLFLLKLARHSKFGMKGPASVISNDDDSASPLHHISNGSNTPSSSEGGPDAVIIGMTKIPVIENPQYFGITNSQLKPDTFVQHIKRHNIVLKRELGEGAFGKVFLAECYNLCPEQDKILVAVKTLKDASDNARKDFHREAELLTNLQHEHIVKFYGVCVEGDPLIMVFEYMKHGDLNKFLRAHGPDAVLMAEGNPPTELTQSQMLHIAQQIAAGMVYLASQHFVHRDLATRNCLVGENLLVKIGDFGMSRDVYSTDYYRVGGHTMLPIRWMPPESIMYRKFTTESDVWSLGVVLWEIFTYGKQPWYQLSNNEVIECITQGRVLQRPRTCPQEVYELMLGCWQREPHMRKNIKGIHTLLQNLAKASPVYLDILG

[8] = biological target: T8, ZIPK/DAPK3 (Homo sapiens, UniProt O43293); assay: Kinase panel assay (radiolabelled); assay type: biochemical; conditions: ATP 10 μM
T8 construct: purchased Reaction Biology Corp
T8 sequence (O43293 whole entry): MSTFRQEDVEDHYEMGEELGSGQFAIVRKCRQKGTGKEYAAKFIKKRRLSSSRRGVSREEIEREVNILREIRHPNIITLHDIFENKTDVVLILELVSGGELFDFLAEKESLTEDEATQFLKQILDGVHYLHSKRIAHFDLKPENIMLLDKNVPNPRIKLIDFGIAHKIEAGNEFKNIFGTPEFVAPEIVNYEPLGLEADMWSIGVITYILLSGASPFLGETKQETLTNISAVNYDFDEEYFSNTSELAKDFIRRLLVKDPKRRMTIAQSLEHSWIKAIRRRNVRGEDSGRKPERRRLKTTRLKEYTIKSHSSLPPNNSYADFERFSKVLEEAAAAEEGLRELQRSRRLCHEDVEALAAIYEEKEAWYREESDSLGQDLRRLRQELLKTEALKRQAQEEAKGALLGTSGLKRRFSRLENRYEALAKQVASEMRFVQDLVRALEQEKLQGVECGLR

[9] = biological target: T9, PI3Kd (p110d/p85a) (Homo sapiens, UniProt O00329); assay: Kinase panel assay (lipid kinase); assay type: biochemical; conditions: 30 μM compound, ATP 10 μM, duplicates Data 1/Data 2
T9 construct: purchased Reaction Biology Corp

[10] = biological target: T10, PI3K (p110a/p65a) (Homo sapiens, UniProt P42336); assay: Kinase panel assay (lipid kinase); assay type: biochemical; conditions: 30 μM compound, ATP 10 μM, duplicates Data 1/Data 2
T10 construct: purchased Reaction Biology Corp

[11] = biological target: GSK3β (Homo sapiens, UniProt P49841); assay: GSK3β radiolabelled kinase assay (% residual activity, IC50, ATP competition); assay type: biochemical
GSK3β, sequence (P49841 whole entry): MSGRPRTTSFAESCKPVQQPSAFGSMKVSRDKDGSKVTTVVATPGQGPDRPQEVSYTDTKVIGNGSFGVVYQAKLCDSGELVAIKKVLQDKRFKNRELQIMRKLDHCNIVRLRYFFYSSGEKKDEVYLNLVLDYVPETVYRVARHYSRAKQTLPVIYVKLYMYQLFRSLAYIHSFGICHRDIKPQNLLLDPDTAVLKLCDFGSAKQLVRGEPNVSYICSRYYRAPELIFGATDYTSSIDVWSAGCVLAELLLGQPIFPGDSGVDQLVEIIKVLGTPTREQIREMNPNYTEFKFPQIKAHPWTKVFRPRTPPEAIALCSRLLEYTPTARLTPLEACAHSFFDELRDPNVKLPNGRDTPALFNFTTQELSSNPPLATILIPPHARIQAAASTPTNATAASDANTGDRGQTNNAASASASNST

[12] = biological target: T11, CDK2/cyclin O (Homo sapiens, UniProt P24941); conditions: cited from earlier work
T11 construct: purchased Reaction Biology Corp

[13] = biological target: T12, RIPK5 (Homo sapiens, UniProt Q6XUX3); conditions: cited from earlier work
T12 construct: purchased Reaction Biology Corp
T12 sequence (Q6XUX3 1-929): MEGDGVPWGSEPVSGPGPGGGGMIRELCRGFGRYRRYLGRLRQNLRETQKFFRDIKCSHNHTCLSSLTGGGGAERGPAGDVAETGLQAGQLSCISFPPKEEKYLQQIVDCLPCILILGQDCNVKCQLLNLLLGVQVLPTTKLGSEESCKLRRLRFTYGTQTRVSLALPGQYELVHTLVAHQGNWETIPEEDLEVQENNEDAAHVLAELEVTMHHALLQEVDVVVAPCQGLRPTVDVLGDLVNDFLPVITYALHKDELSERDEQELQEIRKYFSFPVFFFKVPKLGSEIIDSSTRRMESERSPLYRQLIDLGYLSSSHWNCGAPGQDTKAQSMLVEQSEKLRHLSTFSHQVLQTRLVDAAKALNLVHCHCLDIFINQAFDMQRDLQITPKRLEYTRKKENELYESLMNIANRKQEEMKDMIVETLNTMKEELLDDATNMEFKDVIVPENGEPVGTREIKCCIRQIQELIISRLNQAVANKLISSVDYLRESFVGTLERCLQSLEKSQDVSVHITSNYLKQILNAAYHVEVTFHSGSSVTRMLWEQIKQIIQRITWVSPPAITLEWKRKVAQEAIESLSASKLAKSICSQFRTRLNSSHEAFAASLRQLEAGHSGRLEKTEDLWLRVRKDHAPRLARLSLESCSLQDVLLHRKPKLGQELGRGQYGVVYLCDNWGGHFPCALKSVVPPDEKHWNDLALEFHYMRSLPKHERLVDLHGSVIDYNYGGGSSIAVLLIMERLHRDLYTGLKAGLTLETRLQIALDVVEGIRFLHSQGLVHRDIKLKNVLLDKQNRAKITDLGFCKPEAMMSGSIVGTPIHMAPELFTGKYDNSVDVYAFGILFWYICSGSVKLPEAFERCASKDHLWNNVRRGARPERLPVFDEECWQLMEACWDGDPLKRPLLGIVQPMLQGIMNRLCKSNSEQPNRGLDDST

[14] = biological target: T13, ROCK1 (Homo sapiens, UniProt Q13464); conditions: cited from earlier work
T13 construct: purchased Reaction Biology Corp

[15] = biological target: T14, ROCK2 (Homo sapiens, UniProt O75116); conditions: cited from earlier work
T14 construct: purchased Reaction Biology Corp

[16] = biological target: T7, TRKB; conditions: cited from earlier work
[17] = 30 μM compound, duplicates Data 1/Data 2
[18] = 30 μM compound, duplicates Data 1/Data 2, read-out: % Enzyme Activity (relative to DMSO controls)
[19] = 30 μM, average ± SD, read-out: % Residual Activity at 30 μM
[20] = read-out: % Enzyme Activity (relative to DMSO controls)

T1 sequence (P53355 whole entry): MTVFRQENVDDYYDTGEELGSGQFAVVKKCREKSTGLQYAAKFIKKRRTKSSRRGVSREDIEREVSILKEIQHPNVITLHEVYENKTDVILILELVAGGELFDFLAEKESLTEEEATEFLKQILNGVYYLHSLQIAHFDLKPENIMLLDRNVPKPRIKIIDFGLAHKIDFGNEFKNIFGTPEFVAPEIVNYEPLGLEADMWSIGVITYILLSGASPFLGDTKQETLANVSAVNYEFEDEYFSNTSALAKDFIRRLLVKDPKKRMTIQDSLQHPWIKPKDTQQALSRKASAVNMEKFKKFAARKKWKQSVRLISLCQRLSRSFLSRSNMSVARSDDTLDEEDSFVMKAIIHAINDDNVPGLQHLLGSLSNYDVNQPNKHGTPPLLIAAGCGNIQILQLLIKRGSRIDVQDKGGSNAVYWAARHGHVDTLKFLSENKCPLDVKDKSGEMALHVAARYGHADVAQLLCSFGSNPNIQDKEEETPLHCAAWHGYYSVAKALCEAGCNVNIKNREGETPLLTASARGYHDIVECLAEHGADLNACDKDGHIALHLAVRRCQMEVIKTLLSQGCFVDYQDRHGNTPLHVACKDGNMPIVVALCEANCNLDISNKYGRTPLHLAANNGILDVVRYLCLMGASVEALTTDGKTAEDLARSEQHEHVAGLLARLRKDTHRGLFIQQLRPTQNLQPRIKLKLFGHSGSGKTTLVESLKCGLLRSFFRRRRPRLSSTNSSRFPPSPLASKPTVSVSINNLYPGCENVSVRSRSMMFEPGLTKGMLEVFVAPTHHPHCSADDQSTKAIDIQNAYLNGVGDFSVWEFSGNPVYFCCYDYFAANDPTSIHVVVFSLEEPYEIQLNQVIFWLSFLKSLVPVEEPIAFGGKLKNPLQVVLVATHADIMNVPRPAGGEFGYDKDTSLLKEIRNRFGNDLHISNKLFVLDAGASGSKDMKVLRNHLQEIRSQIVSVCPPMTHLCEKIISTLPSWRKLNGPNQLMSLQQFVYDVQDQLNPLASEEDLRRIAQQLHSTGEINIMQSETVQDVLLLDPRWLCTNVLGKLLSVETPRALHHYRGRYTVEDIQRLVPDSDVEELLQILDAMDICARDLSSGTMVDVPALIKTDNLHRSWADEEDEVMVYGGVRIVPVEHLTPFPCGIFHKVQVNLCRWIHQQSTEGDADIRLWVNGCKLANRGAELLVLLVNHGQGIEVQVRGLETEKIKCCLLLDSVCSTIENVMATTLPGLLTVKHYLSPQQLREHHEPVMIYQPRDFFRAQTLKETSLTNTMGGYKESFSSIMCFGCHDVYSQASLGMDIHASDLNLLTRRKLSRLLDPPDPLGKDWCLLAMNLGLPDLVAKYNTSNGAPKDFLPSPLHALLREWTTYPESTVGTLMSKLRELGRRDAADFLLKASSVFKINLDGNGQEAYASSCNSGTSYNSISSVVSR

## O=C1C=CC2(C=C1)OCC(Cc1cn(-c3cccc(Cl)c3)nn1)C(=O)N2c1ccccc1 (centres unmarked) [2d, 3-((1-(3-Chlorophenyl)-1H-1,2,3-triazol-4-yl)methyl)-5-phenyl-1-oxa-5-azaspiro[5.5]undeca-7,10-diene-4,9-dione]
[1]; [17]
  % Enzyme Activity (relative to DMSO controls): 73.41%
[1]; [18]
  remaining activity at 30 µM: 75.8%
[1]; [19]
  remaining activity at 30 µM: 74.6 ± 1.7%
[2]
  % Enzyme Activity (relative to DMSO controls): 70.64%
[2]; [20]
  remaining activity at 30 µM: 70.8%
[3]
  % Enzyme Activity (relative to DMSO controls): 102.49%
[3]; [20]
  remaining activity at 30 µM: 104%
[4]; [17]
  % Enzyme Activity (relative to DMSO controls): 95.42%
[4]; [18]
  remaining activity at 30 µM: 95.5%
[4]; [19]
  remaining activity at 30 µM: 95.4 ± 0.1%
[5]; [17]
  % Enzyme Activity (relative to DMSO controls): 81.34%
[5]; [18]
  remaining activity at 30 µM: 82.1%
[5]; [19]
  remaining activity at 30 µM: 81.7 ± 0.5%
[6]
  % Enzyme Activity (relative to DMSO controls): 99.08%
[6]; [20]
  remaining activity at 30 µM: 103%
[7]; [17]
  % Enzyme Activity (relative to DMSO controls): 101.29%
[7]; [18]
  remaining activity at 30 µM: 103%
[7]; [19]
  remaining activity at 30 µM: 102 ± 1.3%
[8]; [17]
  % Enzyme Activity (relative to DMSO controls): 86.95%
[8]; [18]
  remaining activity at 30 µM: 88.8%
[8]; [19]
  remaining activity at 30 µM: 87.9 ± 1.3%
[9]
  % Enzyme Activity (relative to DMSO controls): 108.46%
[9]; [20]
  remaining activity at 30 µM: 109%
[10]
  % Enzyme Activity (relative to DMSO controls): 82.25%
[10]; [20]
  remaining activity at 30 µM: 83.8%
[11]; ATP 1 μM (Table 2), read-out: IC50 on GSK3β (converted)
  IC50: 7.04 µM
[11]; at 10 μM compound
  remaining activity at 10 µM: 51.1 ± 6.1%

## O=C1C=CC2(C=C1)OCC(Cc1cc(C(F)(F)F)cc(C(F)(F)F)c1)C(=O)N2c1ccccc1 (racemic) [1c]
[12]
  % Residual Activity at 30 μM: 43.1 ± 1.0%
[13]
  % Residual Activity at 30 μM: 59.3 ± 1.0%
[14]
  % Residual Activity at 30 μM: 97 ± 2.9%
[15]
  % Residual Activity at 30 μM: 103.9 ± 2.4%
[16]
  % Residual Activity at 30 μM: 94.1 ± 1.7%

— paper PMC7719162, “Positioning of an unprecedented spiro[5.5]undeca ring system into kinase inhibitor space” (Scientific Reports, 2020)
